This note sets out measurements from patent US9061994B1, “Materials and methods useful to induce vacuolization, cell death, or a combination thereof” (The University of Toledo, priority 2011, dated 2015).

Molecules are shown by their SMILES. “Also recorded” adds a separate entry of the source. Where two headings read alike, the source gives them in different places.

Data set [1] relates to U251 glioblastoma cells. The data set is described as follows: Cell morphology / vacuolization by phase-contrast microscopy. It is filed as cell-based, human.
A further data set deals with active Arf6. The data set is described as follows: Pull-down assay for activated Arf6. In kind it is cell-based, human. To be noted: U251; 10 μM MIPP; 4 h or 24 h. As to the method: (§1) Assays for activated Rac1 and Arf6 were performed using EZ-Detect Rac1 or Arf6 activation kits. These assays employ either a GST-fusion protein containing the p21-binding domain of p21-activated protein kinase 1 (PAK1) to selectively bind active Rac1 in whole cell lysates, or GST-GGA3 (Golgi-associated gamma adaptin ear-containing Arf binding protein 3) to pull down active Arf6. The active Rac1 or Arf6 collected on the glutathione beads were subjected to western blot analysis and the chemiluminescence signals were quantified using Alpha Innotech FluorChem HD2 imaging system. The values for active protein in each sample were normalized to α-tubulin. Results were expressed as either the total active Rac1 or Arf6, or the ratio of the active GTPase to the total Rac1 or Arf6 measured in aliquots of the cell lysate.

The next data set deals with U251-TR cells. The data set is described as follows: Colony-forming assay, temozolomide-resistant cells. To be noted: 10 μM MIPP, 2 days (FIG. 21). It is filed as cell-based, human. As to the method: (§2) For colony-forming assays, cells were plated in 100 mm dishes at 2,500 (U251 and U251-TR) or 1,500 (all other cell lines) cells per dish. Beginning on the day after plating, the cells were exposed to 10 μM MIPP for 2 days, with the medium and drug replenished after 1 day. The cells were fed fresh medium without drug every 2 to 3 d for a period of 10-21 days. To visualize the colonies, the dishes were washed with PBS, fixed for 10 min with ice-cold 100% methanol, and stained with 1% crystal violet in 35% methanol. After 2-3 washes with water, colonies containing at least 50 cells were counted using a dissecting microscope or a Protocol 2 colony counter.

Data set [2] relates to U251 glioblastoma cells. The data set is described as follows: Colony-forming assay. To be noted: cells treated for 2 days (FIGS. 15, 40). In kind it is cell-based, human.
Data set [3] deals with LN229, U2OS, MCF7, SW480 and PANC-1 cancer cell lines. The data set is described as follows: MTT cell viability assay, other cancer cell lines. It is filed as cell-based. To be noted: Homo sapiens; 10 μM MIPP; all of the cancer cell lines (FIG. 27); read-out: reduction of relative cell viability. On the technique in general: Tetrazolium dyes change colour on reduction, which living cells bring about.

Data set [4] concerns temozolomide-resistant U251 cells (U251-TR). The data set is described as follows: MTT cell viability assay, temozolomide-resistant cells. It is filed as cell-based, human.
The test system of the next data set is active Rac1. The data set is described as follows: Pull-down assay for activated Rac1. The following applies: U251; 10 μM MIPP; 4 h or 24 h. It is filed as cell-based, human. As for the experimental part: as §1
Data set [5] concerns U251 glioblastoma cells. The data set is described as follows: ATP level (CellTiter Glo). In kind it is cell-based, human. The following applies: second day after addition of MIPP (FIG. 13). An excerpt:
To compare the levels of ATP in MIPP-treated glioblastoma cells versus controls treated with an equivalent volume of DMSO, the cells were harvested by trypsinization and assayed using the CellTiter Glo kit from Promega according to the manufacturer's instructions.
For orientation: Cellular ATP, detected with luciferase, serves as a proxy for viable cell number.

The subject of another data set is active Rab5. The data set is described as follows: Pull-down assay for active Rab5. In kind it is cell-based, human. To be noted: U251; 10 μM; 4 h and 24 h. As for the experimental part: (§3) GST-fusion proteins were produced in E. coli BL21 (DE3) pLysS and the fusion proteins were bound to glutathione-sepharose 4B beads. Pull-down assays for active Rab5 using the GST-Rabaptin-5 beads were performed. Assays for active Rab7 were performed. For each determination cell lysates were prepared from ten pooled 10 cm cultures. Monoclonal antibodies against Rab5 or Rab7 were used to probe western blots of the proteins collected on the beads. Results were quantified and normalized as described above for Rac1 and Arf6.

The test system of another data set is active Rab7. The data set is described as follows: Pull-down assay for active Rab7. In kind it is cell-based, human. To be noted: U251; 10 μM; up to 24 h. As to the method:
as §3

Data set [6] deals with LN229, U2OS, MCF7, SW480 and PANC-1 cancer cell lines. The data set is described as follows: Colony-forming assay, other cancer cell lines. In kind it is cell-based, human. To be noted: exposure for 2 days (FIG. 28). As to the method: as §2
Also disclosed herein is an analysis of the effects of the compound in several other cell lines. These include an additional glioma cell line (LN229), osteosarcoma cells (U2OS), and breast (MCF7), colon (SW480) and pancreatic (PANC-1) carcinoma cells. Similar to the results with U251 cells, 10 μM MIPP induced dramatic cytoplasmic vacuolization in all of the cell lines, as shown in FIG. 26.

Data set [7] concerns U251 glioblastoma cells. The data set is described as follows: MTT cell viability assay. In kind it is cell-based, human. The following applies: for IC50: Homo sapiens, U-251, 48 h.
Data set [8] in a line: MTT cell viability assay, normal fibroblasts. In kind it is cell-based. To be noted: human, normal skin fibroblasts, 10 μM MIPP (FIG. 27), read-out: reduction in cell viability.
Data set [9] in a line: MTT cell viability assay, mammary epithelial cells. In kind it is cell-based. To be noted: human, MCF-10A mammary epithelial cells, 10 μM MIPP (FIG. 27), read-out: reduction in cell viability.

One may read the IC50 as the concentration that inhibits the measured activity by half. Turning to `Cc1[nH]c2ccccc2c1C=CC(=O)c1ccncc1` [MIPP, 3-(2-methyl-1H-indol-3-yl)-1-(4-pyridinyl)-2-propen-1-one], the “cell morphology / vacuolization” value with U251 glioblastoma cells [1] (1 μM) is “behaved similarly to Compound I when tested at 1 μM”; in the data set with U251 glioblastoma cells [1] (10 μM) it was “induced vacuoles that were larger and more numerous than those induced by Compound I”. Also, in the data set on active Arf6, the “amount of active Arf6” value is “no significant effects”. The “survival (colony formation)” value in the data set with U251-TR cells is “significant decline in survival”. Also, the colony formation result in the data set on U251 glioblastoma cells [2] is “non-viable in colony-forming assays; also recorded: reduced colony formation”. For the same compound, the cytotoxicity at 10 μM is 50 to 90% in [3], 40% in data set [8] and 30% in [9]. The “methuosis and cell viability in TMZ-resistant cells, in words” value in data set [4] (FIGS. 41A-41B) is “induced methuosis and reduced cell viability in the TMZ-resistant cells”. Further, the IC50 in data set [4] (Homo sapiens, U-251, 48 h, U251-TR, MTT dose-response over a 2-day period (FIG. 20)) was determined as 6 µM; in the data set with U251 glioblastoma cells [7] (U251, two days, medium and compound replenished after the first day (FIG. 37D), read-out: IC50 (cell viability)) it was 4.8 µM; in the data set on U251 glioblastoma cells [7] (parental U251, MTT dose-response over a 2-day period (FIG. 20), read-out: IC50, parental cells), 3.5 µM. For the same compound, the “amount of active Rac1” value in the data set on active Rac1 is recorded as “no significant effects”. In addition, the ATP level entry in the data set with U251 glioblastoma cells [5] is reported as “significant decrease in ATP”. Further, the “amount of active Rab5” value with active Rab5 was “striking decline in the amount of active Rab5”. Further, the “amount / activation state of active Rab7” value in the data set with active Rab7 is given as “more than doubling by 24 h”. The “long-term cell survival (colony formation)” value in [6] was “significantly reduced long-term cell survival in all cases”. In addition, the “relative cell viability, in words” value in the data set on U251 glioblastoma cells [7] (U251, 10 μM, first two days of treatment (FIG. 12)) was “marked decrease in the relative cell viability”.
